{
  "source": "PubChem BioAssay AID1963965",
  "about": "(Molecular Pharmacology Branch, DTP, NCI, 2024);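 note: spheroids exposed to compounds for seven days before viability read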;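 for viability, T/C: luminescence used as a proxy for viable cell amount; percent viability relative to DMSO vehicle control as 100%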",
  "system": "996289-038-R-J1-PDC spheroid viability",
  "assay": "Anticancer human tumor 996289-038-R-J1-PDC patient-derived colon adenocarcinoma cell line growth inhibition [PI3K]",
  "conditions": "spheroids with HUVEC and MSC; for IC50: curve of first compound; for viability, T/C: stronger effect = lower value",
  "procedure,_shortened": "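Agents were dosed from a top concentration near clinical Cmax (otherwise 10 microM) in half-log decrements, alone or combined with PI3K inhibitors. The spheroids contain tumor cells plus endothelial (HUVEC) and MSC stroma; viability is measured.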",
  "data": [
    {"smiles": "Cn1ncnc1[C@H]1c2n[nH]c(=O)c3cc(F)cc(c23)N[C@@H]1c1ccc(F)cc1", "note": "+ CC(Nc1ccc2c(c1)OCCn1cc(N3C(=O)OCC3C(F)F)nc1-2)C(N)=O", "values": [
      {"measurement": "IC50", "setting": "second compound 0.00316 µM", "result": "> 100", "unit": "nM"},
      {"measurement": "IC50", "setting": "second compound 0.01 µM", "result": "> 100", "unit": "nM"},
      {"measurement": "IC50", "setting": "second compound 0.0316 µM", "result": "> 100", "unit": "nM"},
      {"measurement": "IC50", "setting": "second compound 0.1 µM", "result": "> 100", "unit": "nM"},
      {"measurement": "IC50", "setting": "second compound 0.316 µM", "result": "> 100", "unit": "nM"},
      {"measurement": "IC50", "setting": "second compound 1 µM", "result": "> 100", "unit": "nM"},
      {"measurement": "viability, T/C", "setting": "second compound 0.00316 µM, first compound 0.000316 µM", "result": 109, "unit": "%"},
      {"measurement": "viability, T/C", "setting": "second compound 0.00316 µM, first compound 0.001 µM", "result": 104, "unit": "%"},
      {"measurement": "viability, T/C", "setting": "second compound 0.00316 µM, first compound 0.00316 µM", "result": 95, "unit": "%"},
      {"measurement": "viability, T/C", "setting": "second compound 0.00316 µM, first compound 0.01 µM", "result": 112, "unit": "%"},
      {"measurement": "viability, T/C", "setting": "second compound 0.00316 µM, first compound 0.0316 µM", "result": 99.5, "unit": "%"},
      {"measurement": "viability, T/C", "setting": "second compound 0.00316 µM, first compound 0.1 µM", "result": 90.2, "unit": "%"},
      {"measurement": "viability, T/C", "setting": "second compound 0.01 µM, first compound 0.000316 µM", "result": 103, "unit": "%"},
      {"measurement": "viability, T/C", "setting": "second compound 0.01 µM, first compound 0.001 µM", "result": 102, "unit": "%"},
      {"measurement": "viability, T/C", "setting": "second compound 0.01 µM, first compound 0.00316 µM", "result": 103, "unit": "%"},
      {"measurement": "viability, T/C", "setting": "second compound 0.01 µM, first compound 0.01 µM", "result": 111, "unit": "%"},
      {"measurement": "viability, T/C", "setting": "second compound 0.01 µM, first compound 0.0316 µM", "result": 106, "unit": "%"},
      {"measurement": "viability, T/C", "setting": "second compound 0.01 µM, first compound 0.1 µM", "result": 98.6, "unit": "%"},
      {"measurement": "viability, T/C", "setting": "second compound 0.0316 µM, first compound 0.000316 µM", "result": 114, "unit": "%"},
      {"measurement": "viability, T/C", "setting": "second compound 0.0316 µM, first compound 0.001 µM", "result": 85.7, "unit": "%"},
      {"measurement": "viability, T/C", "setting": "second compound 0.0316 µM, first compound 0.00316 µM", "result": 88.5, "unit": "%"},
      {"measurement": "viability, T/C", "setting": "second compound 0.0316 µM, first compound 0.01 µM", "result": 101, "unit": "%"},
      {"measurement": "viability, T/C", "setting": "second compound 0.0316 µM, first compound 0.0316 µM", "result": 97.3, "unit": "%"},
      {"measurement": "viability, T/C", "setting": "second compound 0.0316 µM, first compound 0.1 µM", "result": 85.4, "unit": "%"},
      {"measurement": "viability, T/C", "setting": "second compound 0.1 µM, first compound 0.000316 µM", "result": 89.1, "unit": "%"},
      {"measurement": "viability, T/C", "setting": "second compound 0.1 µM, first compound 0.001 µM", "result": 87.6, "unit": "%"},
      {"measurement": "viability, T/C", "setting": "second compound 0.1 µM, first compound 0.00316 µM", "result": 77.5, "unit": "%"},
      {"measurement": "viability, T/C", "setting": "second compound 0.1 µM, first compound 0.01 µM", "result": 91.6, "unit": "%"},
      {"measurement": "viability, T/C", "setting": "second compound 0.1 µM, first compound 0.0316 µM", "result": 92, "unit": "%"},
      {"measurement": "viability, T/C", "setting": "second compound 0.1 µM, first compound 0.1 µM", "result": 78.3, "unit": "%"},
      {"measurement": "viability, T/C", "setting": "second compound 0.316 µM, first compound 0.000316 µM", "result": 81.7, "unit": "%"},
      {"measurement": "viability, T/C", "setting": "second compound 0.316 µM, first compound 0.001 µM", "result": 77.8, "unit": "%"},
      {"measurement": "viability, T/C", "setting": "second compound 0.316 µM, first compound 0.00316 µM", "result": 81.2, "unit": "%"},
      {"measurement": "viability, T/C", "setting": "second compound 0.316 µM, first compound 0.01 µM", "result": 82.2, "unit": "%"},
      {"measurement": "viability, T/C", "setting": "second compound 0.316 µM, first compound 0.0316 µM", "result": 79.2, "unit": "%"},
      {"measurement": "viability, T/C", "setting": "second compound 0.316 µM, first compound 0.1 µM", "result": 68.7, "unit": "%"},
      {"measurement": "viability, T/C", "setting": "second compound 1 µM, first compound 0.000316 µM", "result": 53, "unit": "%"},
      {"measurement": "viability, T/C", "setting": "second compound 1 µM, first compound 0.001 µM", "result": 59.8, "unit": "%"},
      {"measurement": "viability, T/C", "setting": "second compound 1 µM, first compound 0.00316 µM", "result": 68.6, "unit": "%"},
      {"measurement": "viability, T/C", "setting": "second compound 1 µM, first compound 0.01 µM", "result": 58.1, "unit": "%"},
      {"measurement": "viability, T/C", "setting": "second compound 1 µM, first compound 0.0316 µM", "result": 59.2, "unit": "%"},
      {"measurement": "viability, T/C", "setting": "second compound 1 µM, first compound 0.1 µM", "result": 54.2, "unit": "%"}
    ]}
  ]
}
